Assay results published in ChEMBL document CHEMBL4038345, “Design, Synthesis, and Biological Evaluation of Novel Selenium-Containing Isocombretastatins and Phenstatins as Antitumor Agents” (J Med Chem, 2017).
The source made the active and inactive calls. The rule behind the calls is not given here.

Key:
[1] = tested on: MDA-MB-231; experiment: Antiproliferative activity against human MDA-MB-231 cells after 48 hrs by MTT assay; settings: MDA-MB-231, 48 h
[2] = tested on: HeLa; experiment: cells; settings: Homo sapiens, 48 h
[3] = Metabolic stability in Sprague-Dawley rat liver microsomes assessed as compound remaining after 120 mins in presence of NADPH by UV-based HPLC-MS/MS analysis; assay type: ADME, microsome; settings: read-out: Stability
[4] = Antiproliferative activity against human HepG2/DOX cells after 48 hrs by MTT assay; assay type: functional, cell-based
[5] = Resistance index, ratio of IC50 for human HepG2/DOX cells to IC50 for human HepG2 cells; assay type: functional
[6] = tested on: LoVo; experiment: Antiproliferative activity against human LoVo cells after 48 hrs by MTT assay
[7] = Half life in Sprague-Dawley rat by UV-based HPLC-MS/MS analysis; assay type: ADME; settings: in vivo
[8] = tested on: RKO; experiment: Antiproliferative activity against human RKO cells after 48 hrs by MTT assay
[9] = Metabolic stability in Sprague-Dawley rat liver microsomes assessed as compound remaining after 90 mins in presence of NADPH by UV-based HPLC-MS/MS analysis; assay type: ADME, microsome; settings: read-out: Stability
[10] = tested on: MGC-803; experiment: Antiproliferative activity against human MGC803 cells after 48 hrs by MTT assay; settings: MGC-803, 48 h
[11] = (§1) Metabolic stability in Sprague-Dawley rat liver microsomes assessed as compound remaining after 150 mins in presence of NADPH by UV-based HPLC-MS/MS analysis; assay type: ADME, microsome; settings: Sprague-Dawley, liver microsomes, read-out: Stability
[12] = Metabolic stability in Sprague-Dawley rat liver microsomes assessed as compound remaining after 60 mins in presence of NADPH by UV-based HPLC-MS/MS analysis; assay type: ADME, microsome; settings: read-out: Stability
[13] = tested on: HCT-116; experiment: cells; settings: Homo sapiens, HCT-116, 48 h
[14] = tested on: A549; experiment: cells; settings: Homo sapiens, A549, 48 h
[15] = Resistance index, ratio of IC50 for human A549/CDDP cells to IC50 for human A549 cells; assay type: functional
[16] = Metabolic stability in Sprague-Dawley rat liver microsomes assessed as compound remaining after 30 mins in presence of NADPH by UV-based HPLC-MS/MS analysis; assay type: ADME, microsome; settings: read-out: Stability
[17] = tested on: A2780; experiment: cells; settings: Homo sapiens, A2780, 48 h
Description: Antiproliferative activity against human A2780 cells after 48 hrs by MTT assay

[18] = Inhibition of porcine brain tubulin polymerization measured every 60 seconds for 90 mins by DAPI staining-based fluorescence assay; design: species or system Sus scrofa
[19] = tested on: MCF7; experiment: cells; settings: Homo sapiens, MCF7, 48 h
[20] = tested on: A549; experiment: Induction of microtubule disruption in human A549 cells at 5 to 10 nM after 8 to 24 hrs by Hoechst 33342 staining-based laser scanning confocal immunofluorescence microscopic analysis; assay type: cell-based
[21] = tested on: HepG2; experiment: cells; settings: Homo sapiens, HepG2, 48 h
[22] = tested on: A549/CDDP; experiment: Antiproliferative activity against human A549/CDDP cells after 48 hrs by MTT assay; assay type: functional, cell-based
[23] = tested on: Liver; experiment: as §1; assay type: ADME, microsome; settings: microsomes, 2.5 h
[24] = tested on: A549; experiment: Antitumor activity against human A549 cells xenografted in BALB/c nude mouse assessed as tumor growth inhibition at 30 mg/kg, ip; assay type: functional; settings: read-out: TGI
[25] = tested on: Mus musculus; experiment: Toxicity in BALB/c nude mouse xenografted with human A549 cells assessed as change in body weight at 30 mg/kg, ip; assay type: organism-based; settings: in vivo

Structure (SMILES) | IC50 [1] [nM] | IC50 [6] [nM] | IC50 [8] [nM] | IC50 [14] [nM] | IC50 [21] [nM] | further results
C=C(c1ccc(OC)c(O)c1)c1cc(OC)c(OC)c(OC)c1 | 8.5 | 3.7 | 3.8 | 3.5 | 18.3 | IC50 [2]: 6 nM; remaining at 2 h [3]: 49.8%; IC50 [4]: 38.6 nM; Ratio IC50 [5]: 2.1; half-life [7]: 1.7 h; remaining at 1.5 h [9]: 67.3%; IC50 [10]: 19.8 nM; remaining at 2.5 h [11]: 34.3%; remaining at 1 h [12]: 77.1%; IC50 [13]: 24 nM; Ratio IC50 [15]: 19.7; remaining at 0.5 h [16]: 85.7%; IC50 [17]: 26 nM; IC50 [18]: 2760 nM; IC50 [19]: 48 nM; Activity [20]: Active; IC50 [22]: 69.1 nM
COc1ccc(C(=O)c2cc(OC)c(OC)c([Se]C)c2)cc1Cl | 865 | 189 | 253 | 949 | 1530 | 
C=C(c1ccc(OC)c(F)c1)c1cc(OC)c(OC)c([Se]C)c1 | 24 | 33 | 82 | 29 | 87 | 
COc1ccc(/C=C\c2cc(OC)c(OC)c(OC)c2)cc1O [COMBRETASTATIN A4] |  |  |  |  |  | remaining at 2 h [3]: 19.9%; remaining at 1.5 h [9]: 22.5%; Stability [23]: Nd(Unstable); remaining at 1 h [12]: 26.4%; remaining at 0.5 h [16]: 67.2%
C=C(c1cc(OC)c(OC)c([Se]C)c1)c1ccc(OC)c(OC)c1OC | 3820 | 128 | 1040 | 1380 | 6300 | 
COc1ccc(C(=O)c2cc(OC)c(OC)c([Se]C)c2)cc1Br | 435 | 1750 | 169 | 368 | 655 | 
COc1ccc(C(=O)c2cc(OC)c(OC)c([Se]C)c2)cc1OC | 1020 | 766 | 306 | 285 | 1090 | 
C=C(c1ccc(OC)c(OP(=O)([O-])[O-])c1)c1cc(OC)c(OC)c([Se]C)c1.[Na+].[Na+] |  |  |  |  |  | inhibition in vivo at 30 mg/kg [24]: 72.9%; Activity [25]: Non-Toxic
C=C(c1ccc([Se]C)cc1)c1cc(OC)c(OC)c(OC)c1 | 178 | 279 | 216 | 97 | 386 | 
COc1cc(C(=O)c2ccc(OC)c(OC)c2OC)cc([Se]C)c1OC | 4260 | 523 | 874 | 2750 | 4340 | 
COc1ccc(C(=O)c2cc(OC)c(OC)c([Se]C)c2)cc1C | 997 | 3150 | 5280 | 1730 | 2300 | 
COc1ccc(C(=O)c2cc(OC)c(OC)c([Se]C)c2)cc1F | 34 | 57 | 59 | 33 | 47 | 
COc1ccc(C(=O)c2cc(OC)c(OC)c(OC)c2)cc1O [PHENSTATIN] | 62 | 122 | 72 | 179 | 108 | 
C=C(c1ccc(OC)c(Cl)c1)c1cc(OC)c(OC)c([Se]C)c1 | 83 | 254 | 451 | 196 | 298 | 
C=C(c1ccc(OC)c(OP(=O)(O)O)c1)c1cc(OC)c(OC)c(OC)c1 |  |  |  |  |  | inhibition in vivo at 30 mg/kg [24]: 52.2%
C=C(c1cc(OC)c(OC)c(OC)c1)c1cc(OC)c(OC)c([Se]C)c1 | 3320 | 3140 | 3520 | 473 | 1350 | 
COc1ccc(C(=O)c2cc(OC)c(OC)c([Se]C)c2)cc1O | 24 | 53 | 79 | 55 | 31 | 
COc1cc(C(=O)c2ccc([Se]C)cc2)cc(OC)c1OC | 65 | 296 | 66 | 69 | 77 | 
COc1ccc(/C=C\c2cc(OC)c(OC)c(OC)c2)cc1OP(=O)(O)O [FOSBRETABULIN DISODIUM] |  |  |  |  |  | inhibition in vivo at 30 mg/kg [24]: 47.6%
COc1ccc(C(=O)c2cc(OC)c(OC)c([Se]C)c2)cc1 | 57 | 145 | 47 | 31 | 85 | 
C=C(c1ccc(OC)c(Br)c1)c1cc(OC)c(OC)c([Se]C)c1 | 667 | 171 | 343 | 236 | 691 | 
COc1cc(C(=O)c2cc(OC)c(OC)c([Se]C)c2)cc(OC)c1OC | 741 | 921 | 235 | 172 | 288 | 
C=C(c1ccc(OC)cc1)c1cc(OC)c(OC)c([Se]C)c1 | 96 | 91 | 107 | 72 | 126 | 
C=C(c1ccc(OC)c(C)c1)c1cc(OC)c(OC)c([Se]C)c1 | 599 | 496 | 245 | 141 | 607 | 
C=C(c1ccc(OC)c(OC)c1)c1cc(OC)c(OC)c([Se]C)c1 | 344 | 299 | 216 | 265 | 473 | 
